Values joined by “and” are separate entries in the source; they are usually repeats but may differ in a detail not shown here. Equal values may be shown once.

The first series in a line: solvent given as SMILES. Conditions: in C1CCC2CCCCC2C1.
As to `Nc1ccc2c(C(F)(F)F)cc(=O)oc2c1`, the emission maximum is recorded as 404 nm.

The same series, now with this note: in C1CCCCC1.
As for `Nc1ccc2c(C(F)(F)F)cc(=O)oc2c1`, the emission maximum is listed as 401 nm.
Same read-out and setting: as for `COc1ccc(/C=C/c2nc3ccccc3s2)cc1`, the figure is 400 nm.

Staying with this series, now noted: in C1CCOC1.
As for `CN(c1ccccc1)c1ccc(/C=C2\C(=O)c3ccccc3S2(=O)=O)cc1`, the emission maximum was found to be 532 nm.
The molecule `CCCCCCCCCCCCn1nnc(-c2ccc(C#Cc3ccc(C#Cc4ccc(-c5nnn(CCCCCCCCCCCC)n5)cc4)c4nc5c6ccccc6c6ccccc6c5nc34)cc2)n1` displayed an emission maximum of 495 nm.
The same measure, in the same setting: as for `CCn1c2ccccc2c2cc(C#Cc3cc(C#Cc4ccc5c(c4)c4ccccc4n5CC)ncn3)ccc21`, the figure is 451 nm; as for `CCn1c2ccccc2c2cc(-c3cc(-c4ccc5c(c4)c4ccccc4n5CC)nc(-c4ccc(OC)cc4)n3)ccc21`, 385 nm; as for `CCOC(=O)/C(C#N)=C\c1ccc2c(c1)c1ccccc1n2-c1ccc(OC)cc1`, 460 nm.
Still for that read-out and setting: under `O=C(c1ccc(N(c2ccccc2)c2ccccc2)cc1)[C@H]1[C@H](c2ccc(F)cc2)C[C@](O)(c2ccccn2)C[C@]1(O)c1ccccn1` stands 502 nm.

The series is the same for the next values; noted with them: in C1COCCO1.
In turn, `CN(c1ccccc1)c1ccc(/C=C2\C(=O)c3ccccc3S2(=O)=O)cc1` came in with an emission maximum of 542 nm.
The same measure, in the same setting: under `N#Cc1ccc(/C=C2\N=C(c3ccccc3)NC2=O)cc1` stands 464 nm.
Same read-out and setting: as for `Nc1ccc2c(C(F)(F)F)cc(=O)oc2c1`, the figure is 442 nm.

The same series, now with this note: in CC1CCCCC1.
For `Nc1ccc2c(C(F)(F)F)cc(=O)oc2c1`, the emission maximum is 401 nm.

The series is the same for the next values; noted with them: in CC#N.
On to `CN(c1ccccc1)c1ccc(/C=C2\C(=O)c3ccccc3S2(=O)=O)cc1`, for which the emission maximum stood at 511 nm.
The molecule `Cc1cc(O)c(C(=O)/C=C/c2cccc(O)c2)c(=O)o1` had an emission maximum of 523 nm.
On the same count and under the same terms, as for `CN(C)c1ccc(-c2nc3nccnc3n2-c2ccc(N(C)C)cc2)cc1`, the figure is 472 nm; as for `CN(C)CCCN1c2ccccc2CCc2ccc(Cl)cc21`, 348 nm; as for `Nc1ccc2c(C(F)(F)F)cc(=O)oc2c1`, 465 nm and 461 nm.
Same read-out and setting: as for `CCOC(=O)/C(C#N)=C\c1ccc2c(c1)c1ccccc1n2-c1ccc(OC)cc1`, the figure is 522 nm.
The same measure, in the same setting: as for `Nc1ccc2c(c1)C(=O)O/C2=C\c1ccc(Cl)cc1`, the figure is 452.9 nm; as for `Cc1cc(C(F)(F)F)nc2c1ccc1nc(-c3ccc(Cl)cc3)cn12`, 463 nm.
Turning to `O=C(c1ccc(N(c2ccccc2)c2ccccc2)cc1)[C@H]1[C@H](c2ccc(F)cc2)C[C@](O)(c2ccccn2)C[C@]1(O)c1ccccn1`, the emission maximum came to 523 nm.

Staying with this series, now noted: in CC(C)=O.
Molecule `CN(c1ccccc1)c1ccc(/C=C2\C(=O)c3ccccc3S2(=O)=O)cc1` yielded an emission maximum of 537 nm.
On the same count and under the same terms, under `Nc1ccc2c(C(F)(F)F)cc(=O)oc2c1` stands 466 nm; under `CCOC(=O)/C(C#N)=C\c1ccc2c(c1)c1ccccc1n2-c1ccc(OC)cc1`, 508 nm.
The same measure, in the same setting: as for `Nc1ccc2c(c1)C(=O)O/C2=C\c1ccc(Cl)cc1`, the figure is 448.83 nm.

The series is the same for the next values; noted with them: in CC(C)CO.
On to `Nc1ccc2c(c1)C(=O)O/C2=C\c1ccc(Cl)cc1`, for which the emission maximum is listed as 483.09 nm.

The series is the same for the next values; noted with them: in CC(C)O.
For `Nc1ccc2c(C(F)(F)F)cc(=O)oc2c1`, the emission maximum is listed as 481 nm.
The same measure, in the same setting: under `Nc1ccc2c(c1)C(=O)O/C2=C\c1ccc(Cl)cc1` stands 484.97 nm.

Still in this series, the particulars now being: in CCC(C)CC.
In the case of `Nc1ccc2c(C(F)(F)F)cc(=O)oc2c1`, the emission maximum worked out at 400 nm.

The same series, now with this note: in CCCC(C)C.
Turning to `Nc1ccc2c(C(F)(F)F)cc(=O)oc2c1`, the emission maximum came out at 399 nm.

The same series, now with this note: in CCCCCC.
`Nc1ccc2c(C(F)(F)F)cc(=O)oc2c1` came in with an emission maximum of 401 nm.
The same measure, in the same setting: under `Cc1cc(C(F)(F)F)nc2c1ccc1nc(-c3ccc(Cl)cc3)cn12` stands 439 nm.

Staying with this series, now noted: in CCCCCCCCCCCCCC
With `c1csc(-c2ccc(-c3ccc(-c4cccs4)s3)s2)c1`, the emission maximum is listed as 474 nm.

Staying with this series, now noted: in CCCCCCCCO
Take `Nc1ccc2c(C(F)(F)F)cc(=O)oc2c1`: the emission maximum is recorded as 480 nm.

The same series, now with this note: in CCCCCCO.
For `Nc1ccc2c(C(F)(F)F)cc(=O)oc2c1`, the emission maximum is reported as 481 nm.

The same series, now with this note: in CCCCO.
Consider `O=S(=O)(O)c1cccc2cccc(Nc3ccccc3)c12`, for which the emission maximum came to 477 nm.
Same read-out and setting: as for `Nc1ccc2c(C(F)(F)F)cc(=O)oc2c1`, the figure is 484 nm.

Still in this series, the particulars now being: in CCCCOC(C)=O.
With `Cc1cc(C(F)(F)F)nc2c1ccc1nc(-c3ccc(Cl)cc3)cn12`, the emission maximum is listed as 455 nm.

The same series, now with this note: in CCCO.
The molecule `O=S(=O)(O)c1cccc2cccc(Nc3ccccc3)c12` showed an emission maximum of 479 nm.
Still for that read-out and setting: under `Nc1ccc2c(c1)C(=O)O/C2=C\c1ccc(Cl)cc1` stands 484.5 nm.

Still in this series, the particulars now being: in CCO.
Molecule `O=S(=O)(O)c1cccc2cccc(Nc3ccccc3)c12` returned an emission maximum of 485 nm.
Same read-out and setting: as for `CC/[NH+]=c1\cc2oc3cc(NCCC(=O)NC(CCC(=O)OC)C(=O)OC)c4ccccc4c3nc-2cc1C` (configuration not stated), the figure is 644 nm; as for `CC[N+](CC)=c1ccc2c(-c3ccccc3C(=O)O)c3c(=O)oc4c5c6c(cc4c3oc-2c1)CCCN6CCC5`, 674 nm; as for `Nc1ccc2c(C(F)(F)F)cc(=O)oc2c1`, 485 nm.
Still for that read-out and setting: under `Nc1ccc2c(c1)C(=O)O/C2=C\c1ccc(Cl)cc1` stands 487.33 nm; under `CC[N+](CC)=c1ccc2c(-c3ccccc3C(=O)O)c3oc4cc(N)ccc4c3oc-2c1`, 622 nm.
Molecule `O=C(c1ccc(N(c2ccccc2)c2ccccc2)cc1)[C@H]1[C@H](c2ccc(F)cc2)C[C@](O)(c2ccccn2)C[C@]1(O)c1ccccn1` returned an emission maximum of 515 nm.

The series is the same for the next values; noted with them: in CCOC(C)=O.
In the case of `CN(c1ccccc1)c1ccc(/C=C2\C(=O)c3ccccc3S2(=O)=O)cc1`, the emission maximum is 533 nm.
Still for that read-out and setting: under `CCn1c2ccccc2c2cc(C#Cc3cc(C#Cc4ccc5c(c4)c4ccccc4n5CC)ncn3)ccc21` stands 445 nm; under `CCn1c2ccccc2c2cc(-c3cc(-c4ccc5c(c4)c4ccccc4n5CC)nc(-c4ccc(OC)cc4)n3)ccc21`, 384 nm.
Consider `Nc1ccc2c(C(F)(F)F)cc(=O)oc2c1`, for which the emission maximum is on record as 456 nm.
Still for that read-out and setting: under `CCOC(=O)/C(C#N)=C\c1ccc2c(c1)c1ccccc1n2-c1ccc(OC)cc1` stands 479 nm; under `Nc1ccc2c(c1)C(=O)O/C2=C\c1ccc(Cl)cc1`, 461.68 nm.
Still for that read-out and setting: as for `Cc1cc(C(F)(F)F)nc2c1ccc1nc(-c3ccc(Cl)cc3)cn12`, the figure is 457 nm; as for `O=C(c1ccc(N(c2ccccc2)c2ccccc2)cc1)[C@H]1[C@H](c2ccc(F)cc2)C[C@](O)(c2ccccn2)C[C@]1(O)c1ccccn1`, 502 nm.

The same series, now with this note: in CCOCC.
`Nc1ccc2c(c1)C(=O)O/C2=C\c1ccc(Cl)cc1` had an emission maximum of 427.17 nm.

The series is the same for the next values; noted with them: in CN(C)C=O.
For the molecule `CN(c1ccccc1)c1ccc(/C=C2\C(=O)c3ccccc3S2(=O)=O)cc1`, the emission maximum was 524 nm.
Same read-out and setting: as for `CCn1c2ccccc2c2cc(C#Cc3cc(C#Cc4ccc5c(c4)c4ccccc4n5CC)ncn3)ccc21`, the figure is 502 nm; as for `CCn1c2ccccc2c2cc(-c3cc(-c4ccc5c(c4)c4ccccc4n5CC)nc(-c4ccc(OC)cc4)n3)ccc21`, 414 nm; as for `Nc1ccc2c(C(F)(F)F)cc(=O)oc2c1`, 480 nm.
`O=C(c1ccc(N(c2ccccc2)c2ccccc2)cc1)[C@H]1[C@H](c2ccc(F)cc2)C[C@](O)(c2ccccn2)C[C@]1(O)c1ccccn1` showed an emission maximum of 524 nm.

Source of the values: the Deep4Chem optical property database.
